From US20110256557A1, “IDENTIFYING PARATHYROID HORMONE AGONISTS AND ANTAGONISTS” (DISCOVERYBIOMED, INC., priority 2008, published 2011)

What was measured:
[1] = test system: axin1; test: Axin1 recruitment to cell membrane, cell fractionation assay in mouse primary preosteoblasts; format: cell-based
Protocol: Osteoblasts were isolated by digestion of calvaria of newborn mice as described (Wang et al., J. Clin. Invest. 117:1616-26 (2007)). Briefly, calvaria were incubated with 10 ml of digestion solution containing 1.8 mg/ml of collagenase type I (Worthington Biochemical Corp.; Lakewood, N.J.) for 15 minutes at 37° C. under constant agitation. The supernatant was then harvested, replaced with fresh collagenase and the digestion repeated an additional 4 times. Digestion solutions containing the osteoblasts were pooled together. After centrifugation, osteoblasts were obtained and cultured in α-Minimal Essential Media (MEM) containing 10% FBS and 1% penicillin/streptomycin at 37° C. in a humidified incubator supplied with 5% CO2.
Cells were harvested in cavitation buffer (5 mM HEPES, pH 7.4, 3 mM MgCl2, 1 mM EGTA, 250 mM sucrose) containing protease and phosphatase inhibitors and homogenized by nitrogen cavitation (200 p.s.i., for 5 minutes) in a cell disruption bomb (Parr Instrument Co.; Moline, Ill.). The cell homogenate was centrifuged twice at 700 g for 10 minutes to pellet the nuclei. The supernatant was further centrifuged at 100,000 g (Beckman SW50.1 rotor) for 1 hour to separate the membrane and cytosol fractions, and the resulting membrane pellet was washed three times with cavitation buffer before use in the assays (Zhang et al., Biochem. J. 343:541-9 (1999)). […]

[2] = test system: Xenopus; test: LRP6-mediated secondary axis induction in Xenopus embryos; format: in vivo; details: ventral injection of PTH and PTH1R RNA with LRP6 RNA
Description: RNAs for microinjection were synthesized using SP6 mMessage mMachine in vitro transcription kit (Ambion; Austin, Tex.). […] The doses of RNAs used were: 200 pg LRP6, 2 pg PTH and 50 pg PTH1R.

[3] = biological target: T1, PTH1R (Homo sapiens, UniProt Q03431); test: Co-immunoprecipitation of exogenous LRP5/LRP6 constructs with PTH1R in HEK293 cells; format: cell-based; details: HEK293 cells
T1 sequence (Q03431 27-593): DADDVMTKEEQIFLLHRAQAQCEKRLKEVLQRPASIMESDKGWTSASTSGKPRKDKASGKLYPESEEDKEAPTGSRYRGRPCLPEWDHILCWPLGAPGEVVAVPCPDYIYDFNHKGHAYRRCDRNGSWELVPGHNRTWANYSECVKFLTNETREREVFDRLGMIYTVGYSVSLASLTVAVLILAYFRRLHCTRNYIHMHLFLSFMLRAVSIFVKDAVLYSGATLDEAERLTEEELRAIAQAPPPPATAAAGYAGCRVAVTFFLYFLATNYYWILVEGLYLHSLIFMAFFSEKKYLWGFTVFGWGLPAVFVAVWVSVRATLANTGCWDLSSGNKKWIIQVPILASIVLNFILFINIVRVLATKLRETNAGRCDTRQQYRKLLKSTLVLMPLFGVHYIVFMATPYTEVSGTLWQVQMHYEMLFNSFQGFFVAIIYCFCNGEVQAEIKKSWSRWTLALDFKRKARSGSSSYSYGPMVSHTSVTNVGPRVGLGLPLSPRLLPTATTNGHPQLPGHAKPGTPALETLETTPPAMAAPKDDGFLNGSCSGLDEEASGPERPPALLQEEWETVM
Description: PTH1R tagged with HA was subcloned into pcDNA3.1. cDNAs from human LRP5 (Mao et al., Mol. Cell. 7:801-9 (2001)) and LRP6 (Tamai et al., Nature 407:530-35 (2000)) tagged with HA and VSVG were subcloned into pCMV and pCS2^+, respectively. LRP6N+T (LRP6 N-terminal plus the transmembrane domain) and LRP6T+C (LRP6 transmembrane domain plus C-terminal) tagged with VSVG were subcloned into pCS2^+. LRP6N+1479m, LRP6N+1490m, LRP6N+1493m and LRP6N+1496m were generated by mutagenesis of either the serine (at amino acid 1490 or amino acid 1496) or threonine (at amino acid 1479 or amino acid 1493) to alanine LRP6N-IgG was generated by fusing the LRP6 extracellular domain with IgG (Tamai et al., Nature 407:530-35 (2000)). si-GFP (Wan et al., Am. J. Pathol. 166:1379-92 (2005)) and si-LRP6 plasmids were generated using a BS/U6 vector. Briefly, a 22-nucleotide oligo (oligo 1) corresponding to nucleotides 2981 to 3002 of the human LRP6 coding region was first inserted into the BS/U6 vector digested with ApaI (blunted) and HindIII. The inverted motif that contains the six-nucleotide spacer and five Ts (oligo 2) was then subcloned into the HindIII and EcoRI sites of the intermediate plasmid to generate BS/U6/LRP5/6.
(§1) Cells were harvested in cavitation buffer (5 mM HEPES, pH 7.4, 3 mM MgCl2, 1 mM EGTA, 250 mM sucrose) containing protease and phosphatase inhibitors and homogenized by nitrogen cavitation (200 p.s.i., for 5 minutes) in a cell disruption bomb (Parr Instrument Co.; Moline, Ill.). The cell homogenate was centrifuged twice at 700 g for 10 minutes to pellet the nuclei. The supernatant was further centrifuged at 100,000 g (Beckman SW50.1 rotor) for 1 hour to separate the membrane and cytosol fractions, and the resulting membrane pellet was washed three times with cavitation buffer before use in the assays (Zhang et al., Biochem. J. 343:541-9 (1999)). Immunoprecipitation and Western blot analysis of cell lysates were performed as described previously (Wan et al., Am. J. Pathol. 166:1379-92 (2005)).

[4] = biological target: T2, LRP6-PTH1R complex (Rattus norvegicus, UniProt P25961); test: Co-immunoprecipitation of endogenous LRP6 and PTH1R in UMR-106 cells; format: cell-based; details: IP with antibodies to LRP6, time-dependent
T2 construct: endogenous LRP6 and endogenous PTH1R in UMR-106 cells; endogenous in cells; host or cells: UMR-106
T2 sequence (P25961 27-591): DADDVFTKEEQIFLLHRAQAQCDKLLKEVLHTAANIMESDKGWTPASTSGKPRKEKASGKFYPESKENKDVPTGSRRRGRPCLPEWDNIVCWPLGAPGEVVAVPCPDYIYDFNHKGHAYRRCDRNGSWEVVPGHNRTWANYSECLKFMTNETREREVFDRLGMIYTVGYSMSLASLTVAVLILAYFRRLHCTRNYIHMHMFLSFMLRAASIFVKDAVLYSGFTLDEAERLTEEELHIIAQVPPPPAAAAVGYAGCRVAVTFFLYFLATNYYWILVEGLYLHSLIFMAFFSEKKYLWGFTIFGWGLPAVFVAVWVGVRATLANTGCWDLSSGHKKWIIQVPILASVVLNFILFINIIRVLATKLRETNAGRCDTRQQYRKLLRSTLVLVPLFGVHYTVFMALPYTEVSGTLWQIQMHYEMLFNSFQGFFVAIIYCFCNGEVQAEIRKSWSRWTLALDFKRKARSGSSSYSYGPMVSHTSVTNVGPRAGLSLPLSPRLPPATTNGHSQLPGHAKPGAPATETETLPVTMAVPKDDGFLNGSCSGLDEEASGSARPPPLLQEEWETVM
Protocol: as §1

[5] = test system: β-catenin; test: Western blot of cytosolic β-catenin in UMR-106 cells; format: cell-based, rat
Protocol: as §1

binding of exogenous PTH1R to exogenous LRP6 [3]: enhances
binding of LRP5 to PTH1R ([3]; exogenous LRP5 and PTH1R): did not enhance
Substance: Parathyroid hormone [PTH]
axin1 level on cell membrane [1]: increased
LRP6-induced secondary axis induction [2]: enhanced
complex formation of PTH1R with endogenous LRP6 [4]: formed a complex with endogenous LRP6 in response to PTH in a time-dependent manner
abundance of β-catenin in the cytosol [5]: enhanced
